Reference: ChEMBL document CHEMBL3400106, “TR-FRET binding assay targeting unactivated form of Bruton's tyrosine kinase” (Bioorg Med Chem Lett, 2015)
Active and inactive are the calls of the source. No cut-off for these calls is given here.

Experiments:
[1] = target: T1, Tyrosine-protein kinase BTK (Homo sapiens, UniProt Q06187); test: Inhibition of unactivated BTK (unknown origin) using 30 uM probe 5-(4-(4-(6-(3-(4-tert-butylbenzamido)-2-methylphenyl)-4-methyl-3-oxo-3,4-dihydropyrazin-2-ylamino)benzoyl)piperazine-1-carbothioamido)-2-(6-hydroxy-3-oxo-3H-xanthen-9-yl)benzoic acid
T1 sequence (Q06187 whole entry): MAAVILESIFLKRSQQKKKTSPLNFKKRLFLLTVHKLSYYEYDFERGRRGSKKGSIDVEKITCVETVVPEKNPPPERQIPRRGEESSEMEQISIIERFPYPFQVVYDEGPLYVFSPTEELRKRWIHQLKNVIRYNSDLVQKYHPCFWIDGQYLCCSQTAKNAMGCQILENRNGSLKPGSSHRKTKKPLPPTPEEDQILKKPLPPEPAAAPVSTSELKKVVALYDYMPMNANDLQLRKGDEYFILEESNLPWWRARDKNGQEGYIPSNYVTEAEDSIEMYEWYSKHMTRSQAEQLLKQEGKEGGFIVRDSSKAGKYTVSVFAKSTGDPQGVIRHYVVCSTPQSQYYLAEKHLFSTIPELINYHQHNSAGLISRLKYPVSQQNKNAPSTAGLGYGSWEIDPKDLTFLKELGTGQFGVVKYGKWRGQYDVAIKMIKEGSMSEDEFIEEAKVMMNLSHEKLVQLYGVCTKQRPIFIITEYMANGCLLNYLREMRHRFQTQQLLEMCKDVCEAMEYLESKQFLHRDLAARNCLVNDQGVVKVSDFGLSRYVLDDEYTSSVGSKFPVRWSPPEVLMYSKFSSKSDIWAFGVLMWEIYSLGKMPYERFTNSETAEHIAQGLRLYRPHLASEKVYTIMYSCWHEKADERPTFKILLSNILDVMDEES

[2] = target: T1, Tyrosine-protein kinase BTK; test: Inhibition of biotinylated and unactivated BTK (unknown origin) using FITC-labeled Srctide peptide substrate and ATP
[3] = target: T1, Tyrosine-protein kinase BTK; test: Inhibition of biotinylated and activated BTK (unknown origin) up to 100 uM using FITC-labeled Srctide peptide substrate and ATP
[4] = target: T1, Tyrosine-protein kinase BTK; test: Binding affinity to biotinylated and unactivated BTK (unknown origin) incubated for 1 hr by TR-FRET assay
[5] = target: T1, Tyrosine-protein kinase BTK; test: Binding affinity to biotinylated and activated BTK (unknown origin) at 0.001 to 0.1 uM incubated for 1 hr by TR-FRET assay
[6] = target: T1, Tyrosine-protein kinase BTK; test: Binding affinity to biotinylated and unactivated BTK (unknown origin) at 0.001 to 0.1 uM incubated for 1 hr by TR-FRET assay
[7] = target: T1, Tyrosine-protein kinase BTK; test: Inhibition of biotinylated and activated BTK (unknown origin) using FITC-labeled Srctide peptide substrate and ATP
[8] = Chemical stability in solution; assay type: physicochemical

SMILES	inhibition [1] [%]	IC50 [2] [nM]	inhibition [3]	Kd [4] [nM]	Activity [5]	Activity [6]	IC50 [7] [nM]	Stability [8]
CC(=O)Nc1cccc(NC(=O)c2ccc(CN3CCN(C)CC3)cc2)c1	> 10	4700	inactive	–	–	–	–	–
Cc1c(NC(=O)c2ccc(C(C)(C)C)cc2)cccc1-c1cn(C)c(=O)c(Nc2ccc(C(=O)NCCCNC(=S)Nc3ccc(-c4c5ccc(=O)cc-5oc5cc(O)ccc45)c(C(=O)O)c3)cc2)n1	–	3.2	–	6.2	inactive	Active	208	–
Cc1c(NC(=O)c2ccc(C(C)(C)C)cc2)cccc1-c1cn(C)c(=O)c(Nc2ccc(C(=O)NCCOCCOCCNC(=S)Nc3ccc(-c4c5ccc(=O)cc-5oc5cc(O)ccc45)c(C(=O)O)c3)cc2)n1	–	7.8	–	8.8	inactive	Active	305	Unstable
Cc1c(NC(=O)c2ccc(C(C)(C)C)cc2)cccc1-c1cn(C)c(=O)c(Nc2ccc(C(=O)NCCCCNC(=S)Nc3ccc(-c4c5ccc(=O)cc-5oc5cc(O)ccc45)c(C(=O)O)c3)cc2)n1	–	4.3	–	5.5	inactive	Active	189	Unstable
Cc1c(NC(=O)c2ccc(C(C)(C)C)cc2)cccc1-c1cn(C)c(=O)c(Nc2ccc(C(=O)N3CCOC(CNC(=S)Nc4ccc(-c5c6ccc(=O)cc-6oc6cc(O)ccc56)c(C(=O)O)c4)C3)cc2)n1 (stereo unspecified)	–	4.8	–	3.8	inactive	Active	350	–
Cc1c(NC(=O)c2ccc(C(C)(C)C)cc2)cccc1-c1cn(C)c(=O)c(Nc2ccc(C(=O)N3CCN(C(=S)Nc4ccc(-c5c6ccc(=O)cc-6oc6cc(O)ccc56)c(C(=O)O)c4)CC3)cc2)n1	–	0.61	–	2.5	inactive	Active	69	–
Cc1c(NC(=O)c2ccc(C(C)(C)C)cc2)cccc1-c1cn(C)c(=O)c(Nc2ccc(C(=O)NCCNC(=S)Nc3ccc(-c4c5ccc(=O)cc-5oc5cc(O)ccc45)c(C(=O)O)c3)cc2)n1	–	5.6	–	6.1	inactive	Active	290	Unstable
